Test results taken from paper PMC3585965 (Drugs in R&D, 2012).

Assays:
[1] = Study 2: pharmacokinetic drug-drug interaction GLPG0259 / methotrexate; assay type: in vivo, human; details: methotrexate 7.5 mg
[2] = cited from earlier work

Cmax point estimate, with vs without GLPG0259 ([1]; day 14 (GLPG0259 50 mg) vs day -7): 89.63%
AUC∞ point estimate, with vs without GLPG0259 ([1]; day 14 vs day -7): 118.22%
t1/2,λz point estimate, with vs without GLPG0259 ([1]; day 14 vs day -7): 110.64%
SMILES: CN(Cc1cnc2nc(N)nc(N)c2n1)c1ccc(C(=O)N[C@@H](CCC(=O)O)C(=O)O)cc1 [methotrexate]
t1/2,λz, range of boundary values reported in the literature [2]: 6 to 69 h
